Assay results as given in publication PMC9611471 (Pharmaceutics, 2022).
pIC50: −log10 of the molar value. Values belong to the compound of their own block, whether it stands above or below them.

How the values were obtained:
[1] = test system: A549 cells; experiment: Colony formation assay; assay type: cell-based, human; settings: 5 and 10 μM
Method: A549 cells (1 × 10^3 cells/well) were seeded into six-well plates and then each compound was treated at 5 and 10 μM for 12 h. The medium was changed every two days, and the cells were cultured in a fresh medium for 10 days. The obtained colonies were fixed with 25% glutaraldehyde for 20 min and then stained with 0.1% crystal violet for 15 min.

[2] = test system: A549 cells; experiment: SK1 and SK2 protein (Western blotting) and mRNA (qRT-PCR) levels; assay type: cell-based, human; settings: 5 and 10 μM, 24 h
Method: (§1) Western blotting measured changes in apoptosis-related proteins (PARP, BAX, BCL-2, Caspase-3). A549 cells (1 × 10^6 cells per well in 6-well plates) were incubated for 24 h. Cells were treated with concentrations of the compounds and incubated for 24 h. Then, cells were dissolved on ice for two hours with a lysis buffer containing a mixture of protease and phosphatase inhibitors. The lysate was centrifuged at 12,000× g for 15 min at 4 °C, and the supernatant was collected. Protein concentrations were measured using a bicinchoninic acid protein assay kit. Total protein was separated by 8–10% sodium dodecyl sulfate–polyacrylamide gel electrophoresis (SDS-PAGE) and transferred onto polyvinylidene fluoride (PVDF) membranes. After being blocked with 5% skim milk, membranes were probed overnight at 4 °C with primary antibodies against SK1, SK2, PARP, BAX, Bcl-2, Caspase-3, and β-actin. Then, the membranes were incubated with subsequent secondary antibodies at room temperature. Then, the protein expressions were measured by Amersham Imager 680 (GE Healthcare, Leiden, WZ, The Netherlands).
RNAs were isolated using the Trizol/chloroform reagent (Invitrogen, Waltham, MA, USA). […] For quantitative analysis of various genes, qRT-PCR was performed using the Bio-Rad CFX384 Touch Real-time PCR detection system (Bio-Rad, Hercules, CA, USA) with SYBR Premix Ex Taq (Takara Bio, Shiga, Japan) for 40 cycles.

[3] = test system: A549 cells; experiment: Levels of sphingosine, ceramide and S1P (ELISA); assay type: cell-based, human; settings: 5 and 10 μM
Method: After seeding 1 × 10^6 cells/well into a 6-well plate and incubating for 24 h, the synthetic compounds were treated by concentration. Then, cells were collected and freezing and thawing were repeated three to five times, and centrifuged supernatant was used for testing. The levels of sphingosine, ceramide, and S1P were measured according to the proposed manual using each ELISA kit (Mybiosource, Inc., San Diego, CA, USA).

[4] = test system: A549 cells; experiment: Annexin V-FITC apoptosis analysis; assay type: cell-based, human; settings: 24 h
Method: A549 cells (1 × 10^5 cells) were seeded in into a 12-well plate. […] After harvesting the cells, the binding buffer was added and then incubated with annexin-V-FITC and PI at room temperature for 15 min. The stained cells were analyzed with MACS Quant Analyzer 10 Flow Cytometer (Miltenyi Biotec, Bergisch Gladbach, Germany) within 1 h.

[5] = test system: A549 cells; experiment: Mitochondrial membrane potential measurement (JC-10); assay type: cell-based, human; settings: 10 μM, 24 h
Method: To access the mechanism of cell death, Mitochondrial Membrane Potential (MMP) was performed using JC-10 cationic dye. […] Cells were collected, and 20 μM JC-10 dye prepared in HBSS solution (0.14 M NaCl, 0.005 M KCl, 0.001 M CaCl2, 0.005 M MgSO4-7H2O, 0.0004 M MgSO4-6H2O, 0.0003 M Na2HPO4-2H2O, 0.0004 M KH2PO4, 0.006 M D-glucose, 0.004 M NaHCO3, 0.002 M HEPES, and 0.02% Pluronic® F-127) was added to the cell for 30 min and mixed. The samples were protected from light and measured by using the MACS Quant Analyzer 10 Flow cytometer.

[6] = test system: A549 cells; experiment: Western blotting of apoptosis-related proteins; assay type: cell-based, human; settings: 5 and 10 μM, 24 h
Method: as §1

[7] = test system: A549 cells; experiment: Cytotoxicity after SK1/SK2 siRNA transfection; assay type: cell-based, human; settings: A549 cells transfected with siSK1, siSK2; 24 h
Method: Control small interfering RNA (siControl) was obtained from Bioneer (Daejeon, Korea), while SK1 (sc-44114) and SK2 (sc-39225) siRNA (siSK1 and siSK2) were purchased from Santa Cruz Biotechnology (Dallas, TX, USA). Cells were transfected using Lipofectamine RNAiMAX Reagent (Invitrogen, Carlsbad, CA, USA) according to the manufacturer’s instructions. Transfection efficiency was monitored by Western blot. After 24 h of infection, cytotoxicity was measured using infected cells.

[8] = In vitro metabolic stability, dog liver microsomes; assay type: in vitro ADME; settings: pooled liver microsomes, NADPH, 37 °C, 0 and 30 min
[9] = In vitro metabolic stability, rat liver microsomes; assay type: in vitro ADME; settings: pooled liver microsomes, NADPH, 37 °C, 0 and 30 min
[10] = In vitro metabolic stability, mouse liver microsomes; assay type: in vitro ADME; settings: pooled liver microsomes, NADPH, 37 °C, 0 and 30 min
[11] = molecular target: T1, SK1 (Homo sapiens, UniProt Q9NYA1); experiment: SK1 activity assay (Adapta screening system)
T1 sequence (Q9NYA1 whole entry): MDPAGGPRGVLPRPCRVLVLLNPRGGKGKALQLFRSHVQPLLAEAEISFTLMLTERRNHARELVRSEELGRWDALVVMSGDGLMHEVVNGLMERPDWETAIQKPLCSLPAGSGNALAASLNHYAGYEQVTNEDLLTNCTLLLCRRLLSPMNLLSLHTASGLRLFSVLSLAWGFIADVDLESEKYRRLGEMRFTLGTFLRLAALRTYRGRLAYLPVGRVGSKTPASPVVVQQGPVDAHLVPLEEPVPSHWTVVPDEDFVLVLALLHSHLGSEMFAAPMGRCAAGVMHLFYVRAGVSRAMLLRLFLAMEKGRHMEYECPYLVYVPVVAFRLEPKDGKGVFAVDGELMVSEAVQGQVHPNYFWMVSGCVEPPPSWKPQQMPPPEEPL

[12] = molecular target: T2, SK2 (Homo sapiens, UniProt Q9NRA0); experiment: SK2 activity assay (Adapta screening system); settings: read-out: SK2 inhibitory efficacy
T2 sequence (Q9NRA0 1-654): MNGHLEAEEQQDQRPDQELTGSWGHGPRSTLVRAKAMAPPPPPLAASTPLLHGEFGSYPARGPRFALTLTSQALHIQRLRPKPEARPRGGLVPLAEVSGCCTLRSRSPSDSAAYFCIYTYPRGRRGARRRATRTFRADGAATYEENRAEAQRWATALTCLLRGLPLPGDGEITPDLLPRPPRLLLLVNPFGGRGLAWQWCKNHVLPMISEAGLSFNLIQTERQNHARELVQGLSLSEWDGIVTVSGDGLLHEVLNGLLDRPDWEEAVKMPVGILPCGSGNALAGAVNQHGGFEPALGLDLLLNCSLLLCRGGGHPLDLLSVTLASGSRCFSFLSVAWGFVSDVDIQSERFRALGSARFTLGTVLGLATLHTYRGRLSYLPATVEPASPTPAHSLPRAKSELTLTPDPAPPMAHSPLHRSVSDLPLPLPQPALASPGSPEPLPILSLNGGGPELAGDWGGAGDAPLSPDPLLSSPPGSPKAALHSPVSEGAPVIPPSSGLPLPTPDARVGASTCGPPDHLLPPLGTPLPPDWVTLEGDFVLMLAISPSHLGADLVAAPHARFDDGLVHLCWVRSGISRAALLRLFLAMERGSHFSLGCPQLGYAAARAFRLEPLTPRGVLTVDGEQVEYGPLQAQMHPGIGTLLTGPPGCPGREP

[13] = test system: A549 and H1299 cells; experiment: Cell proliferation / viability assay (EZ-CYTOX)
[14] = In vitro metabolic stability, human liver microsomes; settings: pooled liver microsomes 0.5 mg/mL, NADPH, 37 °C, 0 and 30 min
[15] = molecular target: T1, SK1; parameters: purchased Thermo Fisher Scientific; method as in PMID 32526899; settings: cited from earlier work
[16] = molecular target: T1, SK1; parameters: purchased Thermo Fisher Scientific; method as in PMID 32526899; settings: read-out: SK1 inhibitory effect (IC50); cited from earlier work
[17] = previous studies; cited from earlier work

- MS DLM [8]: 18.6
- MS RLM [9]: 29.1
- MS MLM [10]: 24.6
- inhibition at 10 µM ([11]; read-out: SK1 inhibitory efficacy): 39%
- inhibition at 10 µM [12]: 44%
- MS HLM [14]: 18.1
Structure (SMILES): Cc1cc(CN(Cc2cc(C)cc(CS(=O)(=O)c3ccccc3)c2)c2ccc(CCN3CCC(O)CC3)cc2)cc(CS(=O)(=O)c2ccccc2)c1 [Compound 2, 1-(4-(Bis(3-methyl-5-((phenylsulfonyl)methyl)benzyl)amino)phenethyl)piperidin-4-ol]
- colony formation [1]: reduce colony formation in a concentration-dependent manner
- expression of proteins and mRNAs of SK1 and SK2 [2]: did not affect
- S1P levels [3]: reduced
- ceramide levels [3]: increased
- sphingosine levels [3]: sphingosine expression at a level similar to that of PF-543
- apoptotic effect (annexin-V) ([4]; 5 μM): significant effect
- apoptotic effect (annexin-V) ([4]; 10 μM): significantly higher apoptotic effect compared to PF-543
- change in mitochondrial membrane potential (MMP), JC-10 [5]: significantly increased compared to that after treatment with PF-543
- levels of PARP, Caspase-3 and cleaved PARP [6]: levels of PARP and Caspase-3 were decreased and cleavage of PARP was increased
- dependence of cytotoxic efficacy on SK1/SK2 (siRNA knockdown) [7]: more dependent on SK1, although SK2 is also partially involved
- selectivity for SK1 ([11]; SK1 vs SK2, compared to PF-543): lower selectivity for SK1 compared to PF-543
- cytotoxic effects compared with FTY720 ([13]; 20 and 40 μM, A549 and H1299 cells): cytotoxic effects similar to those of FTY720
- pIC50 ([13]; Homo sapiens, 24 h, read-out: IC50 (cytotoxic effect)): 5.15

Structure (SMILES): Cc1cc(CN(Cc2cc(C)cc(CS(=O)(=O)c3ccccc3)c2)c2ccc(CCO)cc2)cc(CS(=O)(=O)c2ccccc2)c1 [Compound 7]
- binding affinity for SK1 (Ka) [15]: 3.9e+07 M⁻¹
- pIC50 [16]: 6.85

- MS DLM [8]: 7.3
- MS RLM [9]: 7.8
- MS MLM [10]: 9.4
Structure (SMILES): Cc1cc(CS(=O)(=O)c2ccccc2)cc(OCc2ccc(CN3CCC[C@@H]3CO)cc2)c1 [PF-543, reference compound]
- metabolic stability (MS) [17]: poor
